According to the NIST ThermoML archive (doi:10.1016/j.tca.2016.03.016):
Numbers after ± are expanded uncertainties.

Columns and labels:
[1] = Molar enthalpy of transition or fusion; conditions: DSC

In the case of CC(C)(CO)CO [2,2-dimethyl-1,3-propanediol], the Normal melting temperature (Crystal 1, DTA) is reported as 128.50 ± 1.1 °C, the Triple point temperature (Crystal 2, DSC) is reported as 314.95 ± 1.2 K and the “Molar enthalpy of transition or fusion” value ([1]; Crystal 1) is reported as 0.951 ± 0.0526 kcal/mol. For the same molecule, the “Molar enthalpy of transition or fusion” value ([1]; Crystal 2) was 2.65 ± 0.124 kcal/mol.
